The results in this text go back to ChEMBL document CHEMBL1201862, “PubChem BioAssay data set” (2004).

Test systems include UACC-257; T47D; COLO 205; LOX IMVI; K562; SK-MEL-2; DU-145; MDA-MB-435; UACC-62; SK-MEL-5; Hs-578T; SF-268; NCI-H460; CCRF-CEM; MCF7; OVCAR-5; A549; HT-29.
What all share (experiment): growth of human tumour cells (NCI), 48 h

Molecules are shown by their SMILES.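 In this assay, cells in 96-well plates receive the compound at five concentrations for 48 hours. Endpoints are linearly interpolated between the surrounding concentrations. At the GI50, growth is halved.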 Calls of active or inactive are those of the source. Rule as the data show it: active = GI50 up to about 1.1 µM and inactive = higher.

As to `CC1=C(C(N)=O)C(c2ccncc2)C(C#N)C(=O)N1` (stereo not drawn), the GI50 in the test on UACC-257, with T47D, with COLO 205, with LOX IMVI, in the test on K562 and in the test with SK-MEL-2 was > 100 µM (inactive) each time. Also, the GI50 in the test with DU-145, in the test on MDA-MB-435, with UACC-62, in the test with SK-MEL-5, in the test with Hs-578T and in the test with SF-268 was > 100 µM (inactive) in each case. The GI50 in the test with NCI-H460, in the test with CCRF-CEM and in the test on MCF7 was > 100 µM (inactive) each time.
Regarding `c1n[nH]cc1C12C3C4C5C3C1C5C42` (stereo not drawn), the GI50 is 94.6 µM (inactive) in the test on OVCAR-5; > 100 µM (inactive) with A549; > 100 µM (inactive) with UACC-257; 85.3 µM (inactive) in the test with T47D; > 100 µM (inactive) in the test on COLO 205; > 100 µM (inactive) in the test on LOX IMVI. Moreover, the GI50 in the test on K562, in the test with SK-MEL-2, in the test with DU-145, in the test with MDA-MB-435, with UACC-62 and in the test on SK-MEL-5 was > 100 µM (inactive) in each case. For the same compound, the GI50 in the test on HT-29, in the test on Hs-578T, with SF-268, in the test on CCRF-CEM and with MCF7 was > 100 µM (inactive) throughout.
With `O=C(O)c1nc2nc(Cl)c(Cl)nc2[nH]1`, the GI50 in the test on OVCAR-5, with A549, with UACC-257, with T47D, in the test with COLO 205 and in the test with LOX IMVI was > 100 µM (inactive) in each case. Also, the GI50 in the test on K562, with SK-MEL-2, in the test on DU-145, in the test with MDA-MB-435, in the test on UACC-62 and in the test with SK-MEL-5 was > 100 µM (inactive) each time. Further, the GI50 in the test on HT-29, in the test on Hs-578T, with SF-268, with NCI-H460, with CCRF-CEM and in the test with MCF7 was > 100 µM (inactive) in each case.
Take `NCCC(N)C(=O)O` (stereo not drawn): the GI50 in the test with OVCAR-5, with A549, in the test on UACC-257, in the test on T47D, in the test with COLO 205 and in the test with LOX IMVI was > 100 µM (inactive) in each case. The GI50 with K562, in the test on SK-MEL-2, in the test on DU-145, in the test on MDA-MB-435, in the test on UACC-62 and in the test on SK-MEL-5 was > 100 µM (inactive) throughout. Further, the GI50 in the test with HT-29, in the test on Hs-578T, in the test with SF-268, with NCI-H460, in the test with CCRF-CEM and with MCF7 was > 100 µM (inactive) each time.
In the case of `Cc1ccc(NC(c2ccccc2)P(=O)(c2ccccc2)c2ccccc2)cc1` (stereo not drawn), the GI50 with OVCAR-5, in the test with A549, in the test on UACC-257, in the test with T47D, in the test on COLO 205 and in the test on LOX IMVI was > 100 µM (inactive) throughout. The GI50 was 34.4 µM (inactive) in the test on K562; 39.6 µM (inactive) in the test with SK-MEL-2; > 100 µM (inactive) with DU-145; > 100 µM (inactive) in the test on MDA-MB-435; > 100 µM (inactive) in the test with UACC-62; > 100 µM (inactive) with SK-MEL-5. For the same compound, the GI50 in the test with HT-29 is > 100 µM (inactive); with Hs-578T, 44.7 µM (inactive); with SF-268, 71.3 µM (inactive); in the test on NCI-H460, > 100 µM (inactive); in the test on CCRF-CEM it was > 10 µM (inactive); in the test with MCF7, > 100 µM (inactive).
Take `CO[C@]12CC(=O)C3(C(C[C@H]4CC5CC[C@H]6C[C@@H](OC(C)=O)CC[C@]6(OC(C)=O)C5C[C@@]43C)C1)C1C[C@H]3[C@@H]4CC[C@H]5C[C@@H](OC(C)=O)CC[C@]5(OC(C)=O)[C@H]4CC[C@]3(C)C12` (stereo partly drawn): the GI50 was > 100 µM (inactive) in the test on OVCAR-5; 61.2 µM (inactive) in the test with A549; > 100 µM (inactive) in the test on UACC-257; 37 µM (inactive) in the test on T47D; 40.5 µM (inactive) with COLO 205; 89.7 µM (inactive) in the test with LOX IMVI. Further, the GI50 was 54.6 µM (inactive) in the test with K562; > 100 µM (inactive) with SK-MEL-2; 70.3 µM (inactive) in the test on DU-145; 56 µM (inactive) with MDA-MB-435; 84.3 µM (inactive) in the test on UACC-62; 24.4 µM (inactive) with SK-MEL-5. For the same compound, the GI50 with HT-29 was 82.4 µM (inactive); with Hs-578T, 71.4 µM (inactive); in the test with SF-268, > 100 µM (inactive); with NCI-H460, 66.5 µM (inactive); in the test on CCRF-CEM it was 24.5 µM (inactive); with MCF7, 80.5 µM (inactive).
For `Cc1ccc(-c2nnc(CCCCCCCCc3nnc(-c4ccc(C)cc4O)n3N)n2N)c(O)c1`, the GI50 is > 100 µM (inactive) in the test with OVCAR-5; > 100 µM (inactive) with A549; > 100 µM (inactive) in the test on UACC-257; 56.5 µM (inactive) in the test with T47D; > 100 µM (inactive) in the test on COLO 205; > 100 µM (inactive) with LOX IMVI. Besides, the GI50 was > 100 µM (inactive) with SK-MEL-2; > 100 µM (inactive) in the test on DU-145; > 100 µM (inactive) in the test on MDA-MB-435; > 100 µM (inactive) in the test on UACC-62; 44.9 µM (inactive) with Hs-578T; > 100 µM (inactive) in the test with SF-268. In addition, the figures for the GI50 in the test on NCI-H460, with CCRF-CEM and in the test on MCF7 were > 100 µM (inactive), > 10 µM (inactive) and > 100 µM (inactive), respectively.
For `O=C(OC1CN2CCC1CC2)N(c1ccccc1)c1ccccc1` (stereo not drawn), the GI50 with OVCAR-5 is > 100 µM (inactive); in the test on A549 it was > 100 µM (inactive); with UACC-257, 62.5 µM (inactive); in the test with T47D, > 100 µM (inactive); in the test on COLO 205, 43.1 µM (inactive); in the test on LOX IMVI, 38.5 µM (inactive). The GI50 with K562 is 24.9 µM (inactive); with SK-MEL-2, > 100 µM (inactive); in the test on DU-145 it was > 100 µM (inactive); with MDA-MB-435, > 100 µM (inactive); with UACC-62, 65 µM (inactive); with SK-MEL-5, 29.4 µM (inactive). Also, the GI50 was 44.9 µM (inactive) in the test on HT-29; > 100 µM (inactive) in the test with Hs-578T; > 100 µM (inactive) with SF-268; 54.7 µM (inactive) with CCRF-CEM; 74.8 µM (inactive) in the test on MCF7.
For the compound `CC1CC(NN(C)C)C2(C(N)=O)C(N)=NC(=O)C12C#N` (stereo not drawn), the GI50 with OVCAR-5, in the test with A549, in the test on UACC-257, in the test on T47D, in the test with COLO 205 and with LOX IMVI was > 100 µM (inactive) each time. Besides, the GI50 in the test with K562, in the test on SK-MEL-2, in the test on DU-145, in the test with MDA-MB-435, in the test on UACC-62 and with SK-MEL-5 was > 100 µM (inactive) throughout. Further, the GI50 in the test with HT-29, in the test with Hs-578T, in the test on SF-268, in the test with CCRF-CEM and in the test on MCF7 was > 100 µM (inactive) each time.
As for `CC(C)(C)OC(=O)n1c(-c2ccccc2F)cc(=O)c2cc3c(cc21)OCO3`, the GI50 with OVCAR-5 is 6.53 µM (inactive); in the test on A549, 0.103 µM (active); in the test with T47D it was 16.8 µM (inactive); in the test on COLO 205, 0.0942 µM (active); in the test on LOX IMVI, 0.111 µM (active); in the test on SK-MEL-2, 0.0531 µM (active). The GI50 with DU-145 is 0.0451 µM (active); with MDA-MB-435 it was 0.0214 µM (active); with UACC-62, 0.0588 µM (active); in the test with SK-MEL-5, 0.0521 µM (active); in the test with HT-29 it was 0.0497 µM (active); in the test on Hs-578T, 0.0407 µM (active). The GI50 in the test on SF-268 is 0.191 µM (active); in the test with NCI-H460 it was 0.0656 µM (active); in the test with CCRF-CEM it was 0.0638 µM (active); in the test on MCF7, 0.0413 µM (active).
With `Cc1nc2c(Br)cc(Br)cc2c(=O)n1-c1ccccc1NC1OC(CO)C(O)C(O)C1O` (stereo not drawn), the GI50 in the test on OVCAR-5, in the test with UACC-257, with T47D, in the test with COLO 205, with LOX IMVI and in the test on K562 was > 100 µM (inactive) each time. Also, the GI50 with SK-MEL-2, with DU-145, in the test on MDA-MB-435, with UACC-62, in the test with SK-MEL-5 and in the test with HT-29 was > 100 µM (inactive) each time. The GI50 with Hs-578T, in the test with SF-268, in the test with NCI-H460, in the test with CCRF-CEM and in the test with MCF7 was > 100 µM (inactive) in each case.
Consider `CSC(=S)NN=C1CCCCC1`, for which the GI50 with A549 was 26.7 µM (inactive); in the test on UACC-257, 33.9 µM (inactive); in the test on T47D, 55.1 µM (inactive); in the test on COLO 205, 47.1 µM (inactive); in the test with LOX IMVI it was 20.5 µM (inactive); with K562 it was 27.4 µM (inactive). For the same compound, the GI50 with SK-MEL-2 was 52.6 µM (inactive); in the test on DU-145, 27.4 µM (inactive); in the test with MDA-MB-435, 18.7 µM (inactive); with UACC-62, 18.7 µM (inactive); in the test with SK-MEL-5, 16 µM (inactive); with HT-29, 47.6 µM (inactive). Also, the GI50 was 59 µM (inactive) in the test with Hs-578T; 38.5 µM (inactive) in the test on SF-268; 32.1 µM (inactive) in the test with NCI-H460; 26.1 µM (inactive) with CCRF-CEM; 33.8 µM (inactive) with MCF7.
